{"source": "patent US11160843B2", "about": "“Oxytocin and opioid antagonists for treatment of social dysfunction disorder” (YALE UNIVERSITY, priority 2018, dated 2021)", "key": {"social partners": {"tested_on": "social partners", "details": "background statement; cited from earlier work"}, "[1]": {"tested_on": "rhesus macaques (Macaca mulatta)", "experiment": "Live gaze interaction task (social attention to a conspecific)", "assay_type": "in vivo", "details": "for attention to the conspecific (looking at the eyes) following mutual eye contact, compared with SAL: 0.5-3 s after mutual eye contact, permutation test, OTNAL P<0.01, OT, NAL both P>0.05", "description": "Nine adult rhesus macaques (Macaca mulatta) were selected for study. The animals (six males and three females) were all housed together in a colony in either pairs or triads. Each animal was kept on a 12-h light/dark cycle and had access to food 24 h each day with controlled access to water during testing. Before testing began, each monkey received a surgically implanted head post (Crist Instruments, Gray Matter Research) for restraining its head while tracking eye positions. At the time of surgery, anesthesia was induced with ketamine hydrochloride (10 mg/kg i.m.) and maintained with isoflurane (1.0-3.0%, to effect). Aseptic procedures were used, and heart rate, respiration rate, blood pressure, expired CO2, and body temperature were monitored throughout the procedure. Monkeys were allowed an additional 30-40 d of recovery after the implant surgery.\nAll of the tested subjects received pharmacological manipulations through a pediatric nebulizer (PARI Baby Nebulizer; PARI Respiratory Equipment) with a cone-shaped facemask. The facemask, designed for canine anesthesia, was fitted entirely over the muzzle area, and the subject breathed freely through the nose for the duration of the dose administration. Before experimental sessions, monkeys were first incrementally habituated to the facemask and then to the nebulizer until they were completely relaxed during the procedure, which typically took about 3-5 d. […]\nGaze calibration procedures for studying dyadic gaze interactions reported by Dal Monte, et al., 2016, J. Neurophysiol. […] For analysis purposes, the location was determined where the animal was looking on a theoretical screen located further from the actual screen on which the animal was calibrated. With trigonometric corrections, the ROIs were identified and matched based on individual measurements of each monkey's face to the dimension of fixations as measured from the calibration screen. […]\nTwo animals sat in front of each other with no task constraints while the eye positions of both animals were recorded simultaneously and continuously (FIG. 1A). […]"}, "[2]": {"tested_on": "rhesus macaques (Macaca mulatta)", "experiment": "NAL dose-response curve, free-viewing task (fixation frequency to face images)", "assay_type": "in vivo", "details": "intranasal NAL 0.5, 1, 2 mg via nebulizer, P<0.001 for 1 mg over 2 mg and over 0.5 mg", "description": "All of the tested subjects received pharmacological manipulations through a pediatric nebulizer (PARI Baby Nebulizer; PARI Respiratory Equipment) with a cone-shaped facemask. The facemask, designed for canine anesthesia, was fitted entirely over the muzzle area, and the subject breathed freely through the nose for the duration of the dose administration. Before experimental sessions, monkeys were first incrementally habituated to the facemask and then to the nebulizer until they were completely relaxed during the procedure, which typically took about 3-5 d. This habituation procedure was performed with saline (SAL). During both the habituation phase and the testing phase, the animals' heads were restrained to minimize movement and enhance administration reliability. Each of the different pharmacology manipulations tested was diluted to a volume of 2 mL using sterile SAL and was administered over the course of 8-10 min. In addition, experimental sessions were conducted at the same time of day to control for diurnal fluctuations. […]\nOn the day of the experiment, monkeys were transported in a primate chair from the colony room to the experimental room. […] During the 15-s period, monkeys were free to explore, or not explore, each face presented while an infrared eye-tracking camera continuously recorded their eye positions (Eyelink; SR Research). […]"}}}
{"molecule": "CN1CC[C@]23c4c5ccc(O)c4O[C@H]2[C@@H](O)C=C[C@H]3[C@H]1C5", "note": "[morphine]", "values": [{"measurement": "physical contact between social partners", "setting": "social partners", "result": "decrease physical contact between social partners"}]}
{"molecule": "CC[C@H](C)[C@@H]1NC(=O)[C@H](Cc2ccc(O)cc2)NC(=O)[C@@H](N)CSSC[C@@H](C(=O)N2CCC[C@H]2C(=O)N[C@@H](CC(C)C)C(=O)NCC(N)=O)NC(=O)[C@H](CC(N)=O)NC(=O)[C@H](CCC(N)=O)NC1=O", "note": "[OT, 1-({(4R,7S,10S,13S,16S,19R)-19-amino-7-(2-amino-2-oxoethyl)-10-(3-amino-3-oxopropyl)-16-(4-hydroxybenzyl)-13-[(1S)-1-methylpropyl]-6,9,12,15,18-pentaoxo-1,2-dithia-5,8,11,14,17-pentaazacycloicosan-4-yl}carbonyl)-L-prolyl-L-leucylglycinamide]", "values": [{"measurement": "attention to the conspecific (looking at the eyes) following mutual eye contact, compared with SAL", "setting": "[1]", "result": "neither OT nor NAL administered alone had a significant effect"}, {"measurement": "frequency of fixations to the eyes of a conspecific, normalized by SAL", "setting": "[1]; OT 24 IU, NAL 1 mg, intranasal, P=0.004 OTNAL over SAL, P=0.069 over NAL, P=0.022 over OT, OT over SAL P=0.059 (marginal)", "result": "overall increased fixations to the eyes compared with SAL"}]}
{"molecule": "C=CCN1CC[C@]23c4c5ccc(O)c4O[C@H]2C(=O)CC[C@@]3(O)[C@H]1C5", "note": "[NAL, naloxone]", "values": [{"measurement": "frequency of fixations to the eyes, normalized by SAL", "setting": "[2]", "result": "maximal effect again clearly occurred following the 1-mg dose"}, {"measurement": "frequency of fixations to faces, normalized by SAL", "setting": "[2]; inverted U-shaped curve", "result": "maximal effects clearly occurred following the 1-mg dose"}, {"measurement": "attention to the conspecific (looking at the eyes) following mutual eye contact, compared with SAL", "setting": "[1]", "result": "neither OT nor NAL administered alone had a significant effect"}, {"measurement": "solicitation for social contact, such as grooming and proximity", "setting": "social partners", "result": "increases solicitation for social contact"}]}
